Assay results reported in patent US10961234B2, “Oxazole derivatives for use in the treatment of cancer” (LIFEARC, priority 2016, dated 2021).

Columns and labels:
[1] = molecular target: T1, WT full length PAICS (Homo sapiens, UniProt P22234); experiment: Biochemical assay to measure PAICS activity (Transcreener ADP2 FI, SAICAR synthetase reaction); details: PAICS 2.5 nM, 30 mins pre-incubation, ADP detection by fluorescence intensity
T1 construct: 5 μl WT full length PAICS (final assay concentration, fac, 2.5 nM) in basic buffer
T1 sequence (P22234 1-425): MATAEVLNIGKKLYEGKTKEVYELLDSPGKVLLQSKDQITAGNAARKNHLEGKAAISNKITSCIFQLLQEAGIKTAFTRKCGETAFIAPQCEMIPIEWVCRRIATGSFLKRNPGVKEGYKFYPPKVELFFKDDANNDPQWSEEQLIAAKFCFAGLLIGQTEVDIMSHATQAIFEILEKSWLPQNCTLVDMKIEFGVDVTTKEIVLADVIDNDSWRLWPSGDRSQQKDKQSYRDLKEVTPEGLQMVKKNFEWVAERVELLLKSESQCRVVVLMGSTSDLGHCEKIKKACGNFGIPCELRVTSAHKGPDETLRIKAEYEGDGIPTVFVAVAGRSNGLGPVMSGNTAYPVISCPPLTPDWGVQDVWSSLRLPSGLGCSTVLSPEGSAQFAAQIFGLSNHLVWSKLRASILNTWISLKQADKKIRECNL
Source text: The biochemical assay was used to measure PAICS SAICAR synthetase-mediated conversion of CAIR, aspartic acid and ATP to SAICAR, ADP and inorganic phosphate (PI), post-AIR/CAIR equilibration (see FIG. 3). This was achieved by detecting the ADP generated during the reaction, using Bellbrook Lab's Transcreener ADP^2 FI assay. An increase in the fluorescence intensity is directly proportional to the amount of PAICS activity.
The Transcreener ADP^2 FI assay is a homogeneous competitive displacement fluorescence intensity assay which uses direct immunodetection of ADP. Displacement of the tracer by ADP causes an increase in the fluorescence at excitation 590 nm and emission 617 nm (FIG. 3).
5 μl WT full length PAICS (final assay concentration, fac, 2.5 nM) in basic buffer, added to black, non-binding, 384-well plates (Corning #3575), columns 1 to 22.5 μl basic buffer was added to columns 23+24 (negative control). PAICS stock at 31.9 μM from the PI's lab (Steve Firestine). Basic buffer contained 50 mM Tris-HCl pH8 and 0.5 mM EDTA, fac.
1 μl compound in 100% DMSO added per well, or 1 μl 100% DMSO to positive controls (columns 1+2) and negative controls (columns 23+24). Final assay top concentration of compound either 1 mM or 30 μM, serially diluted with half-log dilutions across the plate in duplicate (one 10-point concentration response curve across wells 3 to 12, another across 13 to 22). Compounds pre-incubated with PAICS enzyme for 30 mins at RT.
2 μl CAIR added (fac 10 μM) in basic buffer plus 25 mM MgCl2 and 50 mM KHCO3 fac to all wells. CAIR stock 50 mM from Steve Firestine's lab. 1 hr RT incubation for AIR-CAIR equilibration. NB: ˜50% CAIR is decarboxylated during equilibration therefore 5 μM remains for the synthetase reaction.
2 μl ATP/aspartic acid added (fac 30 μM/180 μM) in reaction buffer to all wells. 30 mins RT incubation for appropriate level of ATP turnover. Reaction buffer contained basic buffer plus 10 mM DTT, 0.01% BSA and 0.01% Brij 35, fac.
10 μl ADP detection reagent added to all wells (as per instructions, Transcreener ADP^2 FI kit, BellBrook Labs #3013-10K). Incubation for 1 h at RT to allow antibody equilibration. Fluorescence intensity determined using a Tecan Safire2 (excitation at 590 nm, emission at 617 nm).

[2] = system: LM2 and MDA-MB-231 breast cancer cell lines; experiment: PAICS 2D cell proliferation assay; type: cell-based; details: Homo sapiens; 72 hours incubation; cell line (LM2 or MDA-MB-231) not given
Description: Frozen cryovial stocks of LM2 and MDA-MB-231 breast cancer cell lines were thawed and cultured in 4.5 g/L glucose DMEM (31966-047, Invitrogen) supplemented with 10% Fetal Bovine Serum (10500-064, Invitrogen) until confluent in a T175 flask. Cells were incubated at 37° C. with 5% CO2 in a humidified incubator.
Cells were collected from T175 flasks by washing with PBS (10010-056, Invitrogen) and dissociated using Accutase (A6964, Sigma Aldrich). This was followed by centrifuging (1200 rpm, 5 min) and resuspending the cells in 10 ml of media containing 1% penicillin/streptomycin (15140-122, Invitrogen). Cells were counted by trypan blue exclusion method using an automated cell counter (Cellometer) and diluted to a concentration of 40,000/ml. 1000 cells were then seeded into 384-well white-walled plates (Corning, 3707) in a volume of 25 μl. Plates were incubated overnight at 37° C. with 5% CO2.
After 24 hours, PAICS compounds were added onto the assay plates using an HP D300 Digital Dispenser (Hewlett Packard). 10 mM stocks were used and dispensed as a 10 point concentration response curve (CRC) ½ log dilution series with a final top concentration of 100 μM. Controls were added onto each plate: positive controls included Staurosporine CRC (100 μM stock dispensed as a 10 point CRC ½ log dilution series with a final top concentration of 1 μM) and PAICS compound MRT00211919 (10 mM stock dispensed as a 10 point CRC ½ log dilution series with a final top concentration of 100 μM); a high control of Staurosporine (0.1 μM (LM2), 0.316 μM (MDA-MB-231) FAC) and a low control of media containing 1% DMSO. A final concentration of 1% DMSO was then added across the plates for normalisation. Following compound addition, assay plates were incubated for 72 hours at 37° C. with 5% CO2.
After 72 h incubation, dead and viable cells were measured in each assay plate. Cytotoxicity was assessed through fluorescent DNA staining using the CellTox™ Green Cytotoxicity Assay kit (G8743, Promega) following the manufacturer's multiplexing protocol. Impaired cell membrane integrity results in the access of dye to stain DNA allowing quantification of dead cells. Cell viability was determined following ATP quantification using the CellTiter-Glo® Luminescent Cell Viability Assay kit (G7572, Promega) following the manufacturer's protocol. ATP released from lysed cells allowed for the generation of a signal proportional to the number of cells present in the well. All endpoint reads were performed using the PheraSTAR Plus (BMG Labtech). Data is expressed as % viable cells and % dead cells against controls (mean±SEM of duplicate curves).

## CN(C)CCOc1ccc(-c2ccc(Cl)c(NC(=O)c3coc(N)n3)c2)cn1 [Example 73, 2-Amino-N-(2-chloro-5-(6-(2-(dimethylamino)ethoxy)pyridin-3-yl)phenyl)oxazole-4-carboxamide]
[1]
  IC50: 25 to 100 nM
[2]
  EC50: 250 to 500 nM

## CN(C)CCOc1ncc(-c2ccc(Cl)c(NC(=O)c3coc(N)n3)c2)cn1 [Example 74, 2-Amino-N-(2-chloro-5-(2-(2-(dimethylamino)ethoxy)pyrimidin-5-yl)phenyl)oxazole-4-carboxamide]
[1]
  IC50: 25 to 100 nM
[2]
  EC50: 250 to 500 nM

## CN(C)CCOc1ccc(-c2ccc(Cl)c(NC(=O)c3coc(N)n3)c2)cc1 [Example 75, 2-Amino-N-{4-chloro-4′-[2-(dimethylamino)ethoxy]biphenyl-3-yl}-1,3-oxazole-4-carboxamide]
[1]
  IC50: 25 to 100 nM
[2]
  EC50: 100 to 250 nM

## Nc1nc(C(=O)Nc2cc(-c3ccc(CN4CCNCC4)nc3)ccc2Cl)co1 [Example 76, 2-Amino-N-{2-chloro-5-[6-(piperazin-1-ylmethyl)pyridin-3-yl]phenyl}-1,3-oxazole-4-carboxamide]
[1]
  IC50: 25 to 100 nM
[2]
  EC50: 250 to 500 nM

## Nc1nc(C(=O)Nc2cc(-c3ccc(CN[C@H]4CC[C@H](N)CC4)nc3)ccc2Cl)co1 [Example 77, 2-Amino-N-[5-(6-{[(trans-4-aminocyclohexyl)amino]methyl}pyridin-3-yl)-2-chlorophenyl]-1,3-oxazole-4-carboxamide]
[1]
  IC50: 10 to 25 nM
[2]
  EC50: 250 to 500 nM

## CN1CCC(NCc2ccc(-c3ccc(Cl)c(NC(=O)c4coc(N)n4)c3)cn2)CC1 [Example 78, 2-Amino-N-[2-chloro-5-(6-{[(1-methylpiperidin-4-yl)amino]methyl}pyridin-3-yl)phenyl]-1,3-oxazole-4-carboxamide]
[1]
  IC50: 10 to 25 nM
[2]
  EC50: 100 to 250 nM

## Nc1nc(C(=O)Nc2cc(-c3ccc(CN4CC5CNCC5C4)nc3)ccc2Cl)co1 (centres unmarked) [Example 79, 2-Amino-N-{2-chloro-5-[6-(hexahydropyrrolo[3,4-c]pyrrol-2(1H)-ylmethyl)pyridin-3-yl]phenyl}-1,3-oxazole-4-carboxamide]
[1]
  IC50: 10 to 25 nM
[2]
  EC50: 250 to 500 nM

## Nc1nc(C(=O)Nc2cc(-c3cnn(CCN4CCNCC4)c3)ccc2Cl)co1 [Example 81, 2-Amino-N-(2-chloro-5-{1-[2-(piperazin-1-yl)ethyl]-1H-pyrazol-4-yl}phenyl)-1,3-oxazole-4-carboxamide]
[1]
  IC50: 25 to 100 nM
[2]
  EC50: 250 to 500 nM

## Nc1nc(C(=O)Nc2cc(-c3cnc(OC4CCNCC4)nc3)ccc2Cl)co1 [Example 82, 2-Amino-N-{2-chloro-5-[2-(piperidin-4-yloxy)pyrimidin-5-yl]phenyl}-1,3-oxazole-4-carboxamide]
[1]
  IC50: 10 to 25 nM
[2]
  EC50: 250 to 500 nM

## CN1CCN(Cc2ccc(-c3ccc(Cl)c(NC(=O)c4coc(N)n4)c3)cn2)CC1 [Example 83, 2-Amino-N-(2-chloro-5-{6-[(4-methylpiperazin-1-yl)methyl]pyridin-3-yl}phenyl)-1,3-oxazole-4-carboxamide]
[1]
  IC50: 25 to 100 nM
[2]
  EC50: 250 to 500 nM

## Nc1nc(C(=O)Nc2cc(-c3ccc(OC4CCNCC4)nc3)ccc2Cl)co1 [Example 84, 2-Amino-N-{2-chloro-5-[6-(piperidin-4-yloxy)pyridin-3-yl]phenyl}-1,3-oxazole-4-carboxamide]
[1]
  IC50: 10 to 25 nM
[2]
  EC50: 250 to 500 nM

## Nc1nc(C(=O)Nc2cc(-c3cnc(OC4CCNCC4)s3)ccc2Cl)co1 [Example 87, 2-Amino-N-{2-chloro-5-[2-(piperidin-4-yloxy)-1,3-thiazol-5-yl]phenyl}-1,3-oxazole-4-carboxamide]
[1]
  IC50: < 10 nM
[2]
  EC50: < 100 nM

## Nc1nc(C(=O)Nc2cc(-c3nc(CN4CCNCC4)cs3)ccc2Cl)co1 [Example 89, 2-Amino-N-{2-chloro-5-[4-(piperazin-1-ylmethyl)-1,3-thiazol-2-yl]phenyl}-1,3-oxazole-4-carboxamide]
[1]
  IC50: < 10 nM
[2]
  EC50: < 100 nM

## Nc1nc(C(=O)Nc2cc(-c3cnc(CN4CCNCC4)s3)ccc2Cl)co1 [Example 90, 2-Amino-N-{2-chloro-5-[2-(piperazin-1-ylmethyl)-1,3-thiazol-5-yl]phenyl}-1,3-oxazole-4-carboxamide]
[1]
  IC50: 10 to 25 nM
[2]
  EC50: 100 to 250 nM

## CNC1CCN(Cc2ncc(-c3ccc(Cl)c(NC(=O)c4coc(N)n4)c3)s2)CC1 [Example 91, 2-Amino-N-[2-chloro-5-(2-{[4-(methylamino)piperidin-1-yl]methyl}-1,3-thiazol-5-yl)phenyl]-1,3-oxazole-4-carboxamide]
[1]
  IC50: < 10 nM
[2]
  EC50: < 100 nM

## CSc1ccc(-c2ccc(OCCCN(C)C)nc2)cc1NC(=O)c1coc(N)n1 [Example 92, 2-Amino-N-[5-{6-[3-(dimethylamino)propoxy]pyridin-3-yl}-2-(methylsulfanyl)phenyl]-1,3-oxazole-4-carboxamide]
[1]
  IC50: 25 to 100 nM
[2]
  EC50: 250 to 500 nM

## CN(C)CCCOc1ccc(-c2ccc(Cl)c(NC(=O)c3coc(N)n3)c2)nc1 [Example 93, 2-Amino-N-(2-chloro-5-{5-[3-(dimethylamino)propoxy]pyridin-2-yl}phenyl)-1,3-oxazole-4-carboxamide]
[1]
  IC50: 25 to 100 nM
[2]
  EC50: 250 to 500 nM

## CNCC1CCN(Cc2ncc(-c3ccc(Cl)c(NC(=O)c4coc(N)n4)c3)s2)CC1 [Example 94, 2-Amino-N-{2-chloro-5-[2-({4-[(methylamino)methyl]piperidin-1-yl}methyl)-1,3-thiazol-5-yl]phenyl}-1,3-oxazole-4-carboxamide]
[1]
  IC50: 10 to 25 nM
[2]
  EC50: < 100 nM

## CNC1CCCN(Cc2ncc(-c3ccc(Cl)c(NC(=O)c4coc(N)n4)c3)s2)C1 (centres unmarked) [Example 95, 2-Amino-N-[2-chloro-5-(2-{[3-(methylamino)piperidin-1-yl]methyl}-1,3-thiazol-5-yl)phenyl]-1,3-oxazole-4-carboxamide]
[1]
  IC50: < 10 nM
[2]
  EC50: 100 to 250 nM
